What all share (assay): MTT cell proliferation assay
What all share (type): cell-based
(Tetrazolium dyes change colour on reduction, which living cells bring about.)

The test system of test [1] is Z138 cells. As to conditions: Homo sapiens, Z-138, Z138 cells, approximately 64-72 hours incubation. A digest of the protocol: (§1)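 Cytotoxicity was measured by MTT: OD490 of the solubilized formazan after roughly 4 h with MTT reagent, reported as mean percent inhibition relative to the negative control. Test compounds covered eight concentrations between 1 nM and 30 μM, added to 5,000–10,000 cells per well that had attached overnight.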

Test [2] has as its system 3T3 cells. As to conditions: Mus musculus, NIH3T3, approximately 64-72 hours incubation. The method, boiled down:
as §1

In test [3] the test system is MS751 cells. Conditions: Homo sapiens, MS751, MS751 cells, approximately 64-72 hours incubation. The method, boiled down: as §1
Where [4] appears, read: read-out: MTT Assay IC50 MS-751.
[5] abbreviates: read-out: MTT Assay IC50, Z-138.
Setting [6] is: read-out: MTT Assay IC50, MS-751.

pIC50: −log10 of the molar value. Where two headings read alike, the source gives them in different places. Some results are limits rather than exact numbers.

As a reminder, the pIC50 is −log10 of the IC50, conventionally taken in molar units.

As for `COc1cc(-c2ccc(S(=O)(=O)N3CCOCC3)cc2)cc2cc(CNC(=O)/C=C/c3ccc(N)nc3)oc12` [Compound 635, (E)-3-(6-aminopyridin-3-yl)-N-((7-methoxy-5-(4-(morpholinosulfonyl)phenyl)benzofuran-2-yl)methyl)acrylamide], the results for the negative-log IC50 (pIC50) in test [1] (read-out: MTT Assay IC50 Z-138), in test [2] (read-out: MTT Assay IC50 3T3) and in test [3] (setting [4]) were greater than 7.00, 5.30 to 7.00 and greater than 7.00, respectively.

In the case of `Nc1ccc(/C=C/C(=O)NCc2cc3cc(-c4ccc(C(=O)N5CCC(F)(F)CC5)cc4)cc(-c4ccc(F)nc4)c3o2)cn1` [Compound 735, (E)-3-(6-aminopyridin-3-yl)-N-((5-(4-(4,4-difluoropiperidine-1-carbonyl)phenyl)-7-(6-fluoropyridin-3-yl)benzofuran-2-yl)methyl)acrylamide], the pIC50 in test [1] (setting [5]) was greater than 7.00; in test [2] (read-out: MTT Assay IC50, 3T3), 5.30 to 7.00; in test [3] (setting [6]) it was greater than 7.00.

For the compound `Nc1ccc(/C=C/C(=O)NCCc2cc3cc(-c4ccc(C(=O)N5CCC(F)(F)CC5)cn4)cc(C(F)(F)F)c3o2)cn1` [Compound 690, (E)-3-(6-aminopyridin-3-yl)-N-(2-(5-(5-(4,4-difluoropiperidine-1-carbonyl)pyridin-2-yl)-7-(trifluoromethyl)benzofuran-2-yl)ethyl)acrylamide], the pIC50 in test [1] (setting [5]) was greater than 7.00; in test [2] (read-out: MTT Assay IC50, 3T3) it was 5.30 to 7.00; in test [3] (setting [6]), greater than 7.00.

In the case of `CC1(O)CCN(C(=O)c2ccc(-c3cc(C(F)(F)F)c4oc(CNC(=O)/C=C/c5ccc(N)nc5)cc4c3)cc2)CC1` [Compound 571, (E)-3-(6-aminopyridin-3-yl)-N-((5-(4-(4-hydroxy-4-methylpiperidine-1-carbonyl)phenyl)-7-(trifluoromethyl)benzofuran-2-yl)methyl)acrylamide], the results for the pIC50 in test [1] (read-out: MTT Assay IC50 Z-138), in test [2] (read-out: MTT Assay IC50 3T3) and in test [3] (setting [4]) were greater than 7.00, less than 5.00 and 5.30 to 7.00, respectively.

`C[C@@H]1COCCN1C(=O)c1ccc(-c2cc(Cl)c3oc(CNC(=O)/C=C/c4ccc(N)nc4)cc3c2)cc1` [Compound 516, (R,E)-3-(6-aminopyridin-3-yl)-N-((7-chloro-5-(4-(3-methylmorpholine-4-carbonyl)phenyl)benzofuran-2-yl)methyl)acrylamide]: the pIC50 was 5.30 to 7.00 in test [1] (read-out: MTT Assay IC50 Z-138), less than 5.00 in test [2] (read-out: MTT Assay IC50 3T3) and 5.30 to 7.00 in test [3] (setting [4]).

As for `Nc1ccc(/C=C/C(=O)NCc2cc3cc(-c4ccc(C(=O)N5CCC(F)(F)CC5)cc4)cc(-c4cc(F)cc(F)c4)c3o2)cn1` [Compound 734, (E)-3-(6-aminopyridin-3-yl)-N-((7-(3,5-difluorophenyl)-5-(4-(4,4-difluoropiperidine-1-carbonyl)phenyl)benzofuran-2-yl)methyl)acrylamide], the pIC50 in test [1] (setting [5]) was greater than 7.00; in test [2] (read-out: MTT Assay IC50, 3T3), 5.30 to 7.00; in test [3] (setting [6]), greater than 7.00.

`Nc1ccc(/C=C/C(=O)NCc2cc3cc(-c4ccc(C(=O)N5CCC(F)(F)CC5)cn4)cc(-c4ccc(F)cc4)c3o2)cn1` [Compound 665, (E)-3-(6-aminopyridin-3-yl)-N-((5-(5-(4,4-difluoropiperidine-1-carbonyl)pyridin-2-yl)-7-(4-fluorophenyl)benzofuran-2-yl)methyl)acrylamide]: the pIC50 was greater than 7.00 in test [1] (setting [5]); 5.30 to 7.00 in test [2] (read-out: MTT Assay IC50, 3T3); greater than 7.00 in test [3] (setting [6]).

`CC1(C)C2CN(C(=O)c3ccc(-c4cc(C(F)(F)F)c5oc(CNC(=O)/C=C/c6ccc(N)nc6)cc5c4)nc3)CC21` (stereo not drawn) [Compound 631, (E)-3-(6-aminopyridin-3-yl)-N-((5-(5-(6,6-dimethyl-3-azabicyclo[3.1.0]hexane-3-carbonyl)pyridin-2-yl)-7-(trifluoromethyl)benzofuran-2-yl)methyl)acrylamide]: the pIC50 in test [1] (read-out: MTT Assay IC50 Z-138) is 5.30 to 7.00; in test [2] (read-out: MTT Assay IC50 3T3), less than 5.00; in test [3] (setting [4]), 5.30 to 7.00.

`Nc1ccc(/C=C/C(=O)NCc2cc3cc(-c4ccc(C(=O)N5CCC(F)(F)CC5)cn4)cc(C4CC4)c3o2)cn1` [Compound 659, (E)-3-(6-aminopyridin-3-yl)-N-((7-cyclopropyl-5-(5-(4,4-difluoropiperidine-1-carbonyl)pyridin-2-yl)benzofuran-2-yl)methyl)acrylamide]: the pIC50 is 5.30 to 7.00 in test [1] (setting [5]); less than 5.00 in test [2] (read-out: MTT Assay IC50, 3T3); 5.30 to 7.00 in test [3] (setting [6]).

`Nc1ccc(/C=C/C(=O)NCc2cc3c(Cl)cc(-c4ccc(C(=O)N5CCC(F)(F)CC5)cc4)cc3o2)cn1` [Compound 714]: the pIC50 in test [1] (setting [5]) is 5.30 to 7.00; in test [2] (read-out: MTT Assay IC50, 3T3) it was less than 5.00; in test [3] (setting [6]) it was 5.30 to 7.00.

Turning to `Nc1ccc(/C=C/C(=O)NCc2cc3cc(-c4ccc(C(=O)N5CCC(F)(F)CC5)cc4)cc(-c4ccc(Cl)cc4)c3o2)cn1` [Compound 742, (E)-3-(6-aminopyridin-3-yl)-N-((7-(4-chlorophenyl)-5-(4-(4,4-difluoropiperidine-1-carbonyl)phenyl)benzofuran-2-yl)methyl)acrylamide], the pIC50 in test [1] (setting [5]) was 5.30 to 7.00; in test [2] (read-out: MTT Assay IC50, 3T3) it was less than 5.00; in test [3] (setting [6]) it was 5.30 to 7.00.

In the case of `Nc1ccc(/C=C/C(=O)NCc2cc3cc(-c4ccc(S(=O)(=O)N5CC[C@@H](F)C5)cc4)cc(Cl)c3o2)cn1` [Compound 527, (R,E)-3-(6-aminopyridin-3-yl)-N-((7-chloro-5-(4-(3-fluoropyrrolidin-1-ylsulfonyl)phenyl)benzofuran-2-yl)methyl)acrylamide], the pIC50 in test [1] (read-out: MTT Assay IC50 Z-138) is 5.30 to 7.00; in test [2] (read-out: MTT Assay IC50 3T3), less than 5.00; in test [3] (setting [4]), 5.30 to 7.00.

As to `Nc1ccc(/C=C/C(=O)NCc2cc3cc(-c4ccc(C(=O)N5CCC(F)(F)CC5)cn4)cc(Cl)c3o2)cn1` [Compound 591, (E)-3-(6-aminopyridin-3-yl)-N-((7-chloro-5-(5-(4,4-difluoropiperidine-1-carbonyl)pyridin-2-yl)benzofuran-2-yl)methyl)acrylamide], the negative logarithm of the IC50 (pIC50) was 5.30 to 7.00 in test [1] (read-out: MTT Assay IC50 Z-138), less than 5.00 in test [2] (read-out: MTT Assay IC50 3T3) and 5.30 to 7.00 in test [3] (setting [4]).

With `Nc1ccc(/C=C/C(=O)NCc2cc3cc(-c4ccc(C(=O)N5CCC(F)(F)CC5)cn4)cc(-c4cc5ccccc5o4)c3o2)cn1` [Compound 668, (E)-3-(6-aminopyridin-3-yl)-N-((5′-(5-(4,4-difluoropiperidine-1-carbonyl)pyridin-2-yl)-2,7′-bibenzofuran-2′-yl)methyl)acrylamide], the pIC50 in test [1] (setting [5]) is greater than 7.00; in test [2] (read-out: MTT Assay IC50, 3T3) it was 5.30 to 7.00; in test [3] (setting [6]), greater than 7.00.

`Nc1ccc(/C=C/C(=O)NCc2cc3cc(-c4ccc(C(=O)N5CCC(F)(F)CC5)cn4)c(F)c(F)c3o2)cn1` [Compound 681, (E)-3-(6-aminopyridin-3-yl)-N-((5-(5-(4,4-difluoropiperidine-1-carbonyl)pyridin-2-yl)-6,7-difluorobenzofuran-2-yl)methyl)acrylamide]: the pIC50 in test [1] (setting [5]) is 5.00 to 5.30; in test [2] (read-out: MTT Assay IC50, 3T3), less than 5.00; in test [3] (setting [6]), less than 5.00.

As to `Nc1ccc(/C=C/C(=O)NCc2cc3cc(-c4ccc(C(O)c5ccc(F)cc5)cn4)cc(-c4ccc(F)cc4)c3o2)cn1` (stereo not drawn) [Compound 704, (E)-3-(6-aminopyridin-3-yl)-N-((7-(4-fluorophenyl)-5-(5-((4-fluorophenyl)(hydroxy)methyl)pyridin-2-yl)benzofuran-2-yl)methyl)acrylamide], the pIC50 was 5.30 to 7.00 in test [1] (setting [5]); less than 5.00 in test [2] (read-out: MTT Assay IC50, 3T3); 5.30 to 7.00 in test [3] (setting [6]).

As to `Nc1ccc(/C=C/C(=O)NCc2cc3cc(-c4ccc(C(=O)N5CCC(F)(F)CC5)cc4)cc(-c4ccc(F)cc4F)c3o2)cn1` [Compound 736, (E)-3-(6-aminopyridin-3-yl)-N-((7-(2,4-difluorophenyl)-5-(4-(4,4-difluoropiperidine-1-carbonyl)phenyl)benzofuran-2-yl)methyl)acrylamide], the pIC50 is greater than 7.00 in test [1] (setting [5]); 5.30 to 7.00 in test [2] (read-out: MTT Assay IC50, 3T3); greater than 7.00 in test [3] (setting [6]).

Turning to `Nc1ccc(/C=C/C(=O)NCCc2cc3cc(-c4ccc(C(=O)N5CCOCC5)cc4)cc(Cl)c3o2)cn1` [Compound 532, (E)-3-(6-aminopyridin-3-yl)-N-(2-(7-chloro-5-(4-(morpholine-4-carbonyl)phenyl)benzofuran-2-yl)ethyl)acrylamide], the pIC50 in test [1] (read-out: MTT Assay IC50 Z-138), in test [2] (read-out: MTT Assay IC50 3T3) and in test [3] (setting [4]) was greater than 7.00 in each case.

On to `Nc1ccc(/C=C/C(=O)NCc2cc3cc(-c4ncc(C(=O)N5CCOCC5)cn4)cc(Cl)c3o2)cn1` [Compound 583, (E)-3-(6-aminopyridin-3-yl)-N-((7-chloro-5-(5-(morpholine-4-carbonyl)pyrimidin-2-yl)benzofuran-2-yl)methyl)acrylamide], for which the pIC50 in test [1] (read-out: MTT Assay IC50 Z-138) is 5.30 to 7.00; in test [2] (read-out: MTT Assay IC50 3T3), less than 5.00; in test [3] (setting [4]) it was 5.30 to 7.00.

For `Nc1ccc(/C=C/C(=O)NCc2cc3cc(-c4ccc(C(=O)N5CCC(F)(F)CC5)cc4F)cc(-c4ccc(C(F)(F)F)cc4)c3o2)cn1` [Compound 749, (E)-3-(6-aminopyridin-3-yl)-N-((5-(4-(4,4-difluoropiperidine-1-carbonyl)-2-fluorophenyl)-7-(4-(trifluoromethyl)phenyl)benzofuran-2-yl)methyl)acrylamide], the pIC50 was 5.30 to 7.00 in test [1] (setting [5]); less than 5.00 in test [2] (read-out: MTT Assay IC50, 3T3); less than 5.00 in test [3] (setting [6]).

For `CN1CCN(C(=O)c2cnc(-c3cc(C(F)(F)F)c4oc(CNC(=O)/C=C/c5ccc(N)nc5)cc4c3)nc2)CC1` [Compound 594, (E)-3-(6-aminopyridin-3-yl)-N-((5-(5-(4-methylpiperazine-1-carbonyl)pyrimidin-2-yl)-7-(trifluoromethyl)benzofuran-2-yl)methyl)acrylamide], the pIC50 in test [1] (read-out: MTT Assay IC50 Z-138) was 5.30 to 7.00; in test [2] (read-out: MTT Assay IC50 3T3), less than 5.00; in test [3] (setting [4]) it was 5.30 to 7.00.

For the origin of these results see US12331040B2 (Karyopharm Therapeutics Inc., priority 2013, dated 2025).
